Legend:
washed plasma clot = assay: procoagulant activity of washed plasma clot incubated in unanticoagulated whole blood; assay type: biochemical
From the text: There is mounting evidence that both fibrin-bound thrombin and platelet-bound factor Xa contribute to the intense procoagulant activity of thrombi. […] Development of these agents requires an understanding of the mechanisms by which fibrin-bound IIa and platelet-bound factor Xa are protected from inactivation by heparin, LMWH and hirudin.

injured rabbit aorta = assay: rabbit arterial thrombosis prevention model (flow distal to 95% stenosis in injured aorta); assay type: in vivo; conditions: FIG. 11
Method: This example illustrates a study comparing the efficacy and safety of the MLMWH compounds of the present invention, which are denoted in the figures as V21, LMWH, heparin and hirudin in a the rabbit arterial thrombosis prevention model. […] The arterial thrombosis prevention model was modified so that both efficacy and safety could be assessed in the same animal. Efficacy was assessed by measuring flow over 90 minutes distal to a 95% stenosis in an injured rabbit aorta, and safety was assessed by measuring blood loss over 30 minutes using the rabbit ear model. The four compounds were compared at three dosage levels. Each compound was administered as a bolus and infusion for 90 minutes. The doses listed in the following figures represent the bolus and infusion/60 minutes, administered for 90 minutes. The doses for heparin are shown as units/Kg, for LMWH and V21 as mg/Kg and for hirudin as mg/Kg. V21 has similar anti-Xa activity to LMWH and about twice the anti-IIa activity of LMWH. Thus, the specific activity of LMWH is 100 anti-Xa/mg and 30 anti-IIa units/mg. The specific activity of V21 is 100 anti-Xa units/mg and 60 anti-IIa units/mg, whereas the specific activity of heparin is about 150 anti-Xa units and 150 anti-IIa units/mg. The anticoagulants were compared in the following dosages. […]

Row | Substance | blocking of the ability of a washed plasma clot to accelerate coagulation (washed plasma clot) | response of the model to the antithrombotic effects (injured rabbit aorta)
1 | TAP: tick anticoagulant peptide, a direct inhibitor of factor Xa (YNRLCIKPRDWIDECDSNEGGERAYFRNGKGGCDSFWICPEDHTGADYYSSYRDCFNACI; UniProt P17726 1-60, looked up) | cannot be blocked | –
2 | hirudin | cannot be blocked | very responsive
